Assays:
Type in all cases: cell-based, mouse
[1] = test system: BMDMs; assay: Flow cytometry, CellROX and TMRM staining; conditions: BMDMs pre-treated, LPS 4 h; oligomycin 10 μM, CCCP 50 μM, valinomycin 10 nM, MMF 50 or 100 μM
Procedure: (§1) All compounds used DMSO as a vehicle except for 4-hydroxy tamoxifen (EtOH), NAC (PBS), and AOAA for tracing experiments (Media). LPS was used at a concentration of 100 ng/ml for indicated timepoints (2, 3, 4, 6, 8, 24, 48 h). FHIN1 (10 or 20 μM), MMF (50 or 100 μM), DMF (25 μM), AOAA (5 mM), oligomycin (10 μM), CCCP (50 μM) NAC (1 mM), and IMT1 (10 μM) pre-treatments were performed for 3 h prior the addition of LPS. Cells were treated with valinomycin (10 nM) 15 mins before LPS stimulation. Anti-CD210 or IgG control (10 μg/ml) antibodies were added to cells 1 h prior to LPS stimulation. Recombinant mouse IL-10 protein (100 ng/ml) was added to cells at the same time as LPS. Cells were treated with IFN-B1 (220 ng/ml) for 3 h. Cells were treated with C-178 (1 μM) 1 h prior to LPS stimulation or transfection with 2′3′-cGAMP (1.5 μg/ml) for 4 hrs to achieve cGAS-STING activation. Cells were treated with ODN 2088 (1 μM) for 1 hr prior to LPS stimulation or transfection with CPG ODN 1826 (1.5 μg/ml) to achieve TLR9 activation. 3 different timepoints of 4-hydroxy tamoxifen (TAM) (600 nM or 2 μM) or EtOH treatment were performed-these are specified in the individual figure legends. For ‘48 h’ treatments EtOH/TAM was added on day 5 of 6 during the BMDM differentiation protocol. On day 6 they were plated with EtOH/TAM (left overnight) and treated the following day. For ‘72 h’ treatments EtOH/TAM was added on day […] of 6 during the BMDM differentiation protocol. On day 6 they were plated with EtOH/TAM (left overnight) and treated the following day. For ‘96 h’ treatments EtOH/TAM was added on day […] of 6 during the BMDM differentiation protocol. On day 6 they were plated with EtOH/TAM and treated 2 days later.
Cells were plated in 12-well plates and treated as desired. CellROX Green (5 μM, Thermo Fisher) or TMRM (20 nM, Thermo Fisher) was added to cells 30 mins prior to end of cell treatments. Cells were washed once in PBS and scraped into 200 μl FACS buffer (2 mM EDTA, 0.5% FCS in PBS). Acquisition of samples was performed on a BD Accuri C6 flow cytometer. The gating strategy used for all flow cytometry experiments consisted of debris exclusion by FSC-A vs SSC-A analysis and subsequent doublet exclusion by FSC-A vs FSC-H analysis. A sample gating strategy is provided in Supplementary FIG. 2. 10,000 cells was acquired per condition. Mean fluorescence intensity (MFI) was calculated for all cells in each condition using FlowJo v10.

[2] = test system: BMDMs; assay: ELISA of cytokine release from BMDMs; conditions: LPS 4 h; for LPS-induced IFN-β release: BMDMs pre-treated
Procedure: as §1
(§2) Pre-designed silencer select siRNAs for Cgas (s103166), Tmem173 (s91058), Tlr3 (s100579), Tlr9 (s96268), As/(s99640), Tlr7 (s100720), Ddx58 (s106376), Ifih1 (s89787), Nrf2 (s70522), Atf4 (s62689) and negative control (4390843) were ordered from Thermo Fisher. siRNA sequences are given in Table S2. Cells were transfected with 50 nM siRNA using 5 μl lipofectamine RNAiMAX according to manufacturer's instructions (Thermo Fisher). Cells were transfected in medium without serum and antibiotics which was replaced with complete medium 8 hours later. Cells were subsequently left for at least a further 12 hours prior to treatment.
BMDMs were plated in the presence or absence of ultrapure ethidium bromide (100 ng/ml) and incubated for a further 6 days prior to treatment. Depletion of mtDNA was determined by genomic DNA isolation followed by qPCR using primers specific for areas of mitochondrial DNA (D-loop) and areas of mtDNA that are not inserted into nuclear DNA (Non-NUMT).
DuoSet ELISA kits for IL-1β, TNFα, IL-6, IL-10, and GDF15 were purchased from R&D Systems and were carried out according to the manufacturer's instructions with appropriately diluted cell supernatants added to each plate in duplicate or triplicate. IFN-β was determined using DuoSet ELISA kit from R&D Systems or Abcam (ab252363). Quantikine ELISA kit for IFN-β (R&D Systems) was used for determination of IFN-β concentration in serum samples and from human cells, and these were also carried out according to the manufacturer's instructions. Absorbance at 450 nm was quantified using a FLUOstar Optima plate reader. Corrected absorbance values were calculated by subtracting the background absorbance, and cytokine concentrations were subsequently obtained by extrapolation from a standard curve plotted on GraphPad Prism 9.2.0.

[3] = test system: BMDMs; assay: Digitonin fractionation, qPCR of mtDNA and mtRNA
Procedure: as §1
BMDMs were plated at 0.5×10^6 cells/well and treated as desired. After treatment, cells were washed once with room temperature PBS, before being scraped on ice into ice cold PBS and pelleted at 500×g for 5 mins at 4° C. Supernatant was removed and discarded, and the pellet was resuspended in 400 μl extraction buffer (150 mM NaCl, 50 mM HEPES pH 7.4, 25 μg/ml digitonin). Samples were then placed in a rotating mixer at 4° C. for 10 mins before centrifugation at 2000×g at 4° C. for 5 mins. The resulting supernatant constituted the cytosolic fraction, from which RNA and DNA were isolated using an AllPrep DNA/RNA Mini Kit (Qiagen). Alternatively, the cytosolic fraction was concentrated using Strataclean Resin (Agilent) and analysed by western blot. The pellet constituted a fraction containing membrane-bound organelles which was lysed in RNA lysis buffer for RNA isolation or lysed in western blot lysis buffer for analysis by western blot. To determine the presence of mtRNA and mtDNA in the cytosol, qPCR was performed using primers specific for mitochondrial D-loop on cDNA which had been reverse-transcribed from RNA isolated from the cytosolic fraction (mtRNA) and on DNA isolated from the cytosolic fraction (mtDNA). In both cases, values were normalised using a housekeeping control gene (β-actin) amplified in cDNA which had been reverse-transcribed from RNA isolated from the membrane-bound fraction.

[4] = test system: BMDMs; assay: RT-qPCR gene expression in BMDMs
Procedure: as §1
RNA extraction from cells was carried out using a Purelink™ RNA kit (Invitrogen) according to the manufacturer's instructions. BMDMs were treated as required, and following treatment were instantly lysed in 350 μl RNA lysis buffer. Isolated RNA was quantified using a NanoDrop 2000 spectrophotometer, and RNA concentration was normalised to the lowest concentration across all samples with RNAse-free water. If necessary, samples were DNAse-treated after quantification using DNAse I (Thermo Fisher) according to the manufacturer's instructions. Isolated RNA samples were normalised and converted into cDNA using the High-Capacity cDNA Reverse Transcription Kit (Thermo Fisher) according to manufacturer's instructions. 10 μl of RNA (at a maximum concentration of 100 ng/μl) was added to 10 μl of reverse transcription master mix to complete the reaction mixture. Real-time quantitative PCR was performed on the cDNA generated in the previous step, using primers designed in-house and ordered from Eurofins Genomics, as detailed in Table S2. The reaction was performed in a 96-well qPCR plate by a 7500 Fast Real-Time PCR machine (Thermo Fisher). Relative expression (2^−ΔΔCT) was calculated from the CT values for each sample and gene of interest.
as §2

[5] = test system: BMDMs; assay: Immunofluorescence, Mitotracker Red and dsRNA; conditions: BMDMs pre-treated, relative to DMSO control, LPS 4 h
Procedure: as §1
Cells were plated on 20 mm cover slips in 12-well plates. Cells were treated as required and Mitotracker Red CMXRos (100 nM, Thermo Fisher), was added to medium 30 mins prior to end of cell treatments. After 30 min incubation, cells were washed three times with warm PBS. Cells were subsequently fixed for 10 mins with 4% paraformaldehyde/PBS at 37° C. Cells were washed three times with PBS and permeabilized for 1 hour in block solution (1% BSA, 22.52 mg/ml glycine, 0.1% tween 20 in PBS). Anti-dsRNA antibody (Merck) was diluted 1/60 in block solution and incubated with cells overnight at room temperature. Cells were washed three times with PBS for 5 mins/wash. […] Images were analysed using the LAS X Life Science Microscope Software Platform (Leica). The same microscope instrument settings were used for all samples and all images were analysed using the same settings. […] Quantification of dsRNA or Mitotracker Red CMXRos signal intensity was performed using the measure function in ImageJ 1.53t (NIH).

| Molecule | mitochondrial membrane potential (MMP), TMRM staining [1] | LPS-induced IFN-β release [2] | dsRNA accumulation (immunofluorescence) [5] | also measured |
| --- | --- | --- | --- | --- |
| N#CC(C#N)=NNc1cccc(Cl)c1 [CCCP] | significantly dissipated | boosted | – | – |
| Cc1ccccc1-c1cc(=O)oc2cc(OC(C)C(=O)N(C)C)ccc12 (centres unmarked) [IMT1] | – | – | – | effect on the FHIN1-mediated boost in IFN-β release ([2]; BMDMs co-treated with FHIN1 and IMT1 10 μM): abrogated; effect on the increase in mtRNA with FHIN1 (cytosolic and whole cell fraction) ([3]; BMDMs co-treated with FHIN1 and IMT1 10 μM, LPS 4 h): inhibited in both |
| CC(=O)N[C@@H](CS)C(=O)O [NAC, N-acetyl cysteine] | – | – | – | suppression of Il10 by FHIN1 and DMF ([4]; BMDMs, NAC 1 mM together with FHIN1 or DMF, LPS 4 h): abrogated |
| CC[C@H]1/C=C/C=C/C[C@@H](C)[C@H](O)[C@@](C)(O)C(=O)[C@@H](C)[C@H](O)[C@@H](C)C(=O)[C@@H](C)[C@H](O)[C@@H](C)/C=C/C(=O)O[C@@H]2[C@H](C)[C@H](CC1)O[C@]1(CC[C@H](C)[C@H](C[C@@H](C)O)O1)[C@H]2C [oligomycin A, Oligomycin A] | boosted | boosted | accumulation of dsRNA to a similar extent to that observed in cells treated with FHIN1 | mtDNA in cytosolic extracts (D-loop) ([3]; digitonin-fractionated BMDMs): increase; mtRNA in cytosolic extracts ([3]; digitonin-fractionated BMDMs): increased |
| CC(C)[C@@H]1NC(=O)[C@H](C)OC(=O)[C@@H](C(C)C)NC(=O)[C@@H](C(C)C)OC(=O)[C@H](C(C)C)NC(=O)[C@H](C)OC(=O)[C@@H](C(C)C)NC(=O)[C@@H](C(C)C)OC(=O)[C@H](C(C)C)NC(=O)[C@H](C)OC(=O)[C@@H](C(C)C)NC(=O)[C@@H](C(C)C)OC1=O [valinomycin A, valinomycin] | non-significantly reduced | boosted | similarly drove dsRNA accumulation | – |
| IFN-β: recombinant mouse IFN-β1 used to stimulate BMDMs (protein, UniProt P01575 22-182, looked up) Interferon beta: INYKQLQLQERTNIRKCQELLEQLNGKINLTYRADFKIPMEMTEKMQKSYTAFAIQEMLQNVFLVFRNNFSSTGWNETIVVRLLDELHQQTVFLKTVLEEKQEERLTWEMSSTALHLKSYYWRVQRYLKLMKYNSYAWMVVRAEIFRNFLIIRRLTRNFQN | – | – | – | Fh1 expression ([4]; IFN-β-stimulated BMDMs (220 ng/ml, 3 h)): inhibited |

Reference: patent publication US20250018019A1, “TREATMENT OF INTERFERON DRIVEN INFLAMMATION” (The Provost, Fellows, Foundation Scholars and the other …, priority 2023, published 2025)
